Laboratory results taken from patent US9096624B2 (OSI Pharmaceuticals, LLC, priority 2009, dated 2015).
pIC50: −log10 of the molar value.

Legend:
FAK [1] = biological target: T1, FAK (Homo sapiens, UniProt Q05397); assay: biochemical
FAK [2] = biological target: T1, FAK; assay: Cell-based capture ELISA for inhibition of FAK autophosphorylation [pY397] in MiaPaCa2 cells; conditions: MIA-PaCa2 cells, read-out: Mean FAK Cell Mechanistic IC50 + 50% mP MIA-PaCa2
Protocol: Cell-Based Assays for Inhibition of FAK Autophosphorylation: MiaPaCa2 and U87MG
ELISA kit from Invitrogen (KHO0441).
Reagents Provided in Biosource FAK [pY397]
The cells were then suspended in cell assay medium.

T1 sequence (Q05397 whole entry): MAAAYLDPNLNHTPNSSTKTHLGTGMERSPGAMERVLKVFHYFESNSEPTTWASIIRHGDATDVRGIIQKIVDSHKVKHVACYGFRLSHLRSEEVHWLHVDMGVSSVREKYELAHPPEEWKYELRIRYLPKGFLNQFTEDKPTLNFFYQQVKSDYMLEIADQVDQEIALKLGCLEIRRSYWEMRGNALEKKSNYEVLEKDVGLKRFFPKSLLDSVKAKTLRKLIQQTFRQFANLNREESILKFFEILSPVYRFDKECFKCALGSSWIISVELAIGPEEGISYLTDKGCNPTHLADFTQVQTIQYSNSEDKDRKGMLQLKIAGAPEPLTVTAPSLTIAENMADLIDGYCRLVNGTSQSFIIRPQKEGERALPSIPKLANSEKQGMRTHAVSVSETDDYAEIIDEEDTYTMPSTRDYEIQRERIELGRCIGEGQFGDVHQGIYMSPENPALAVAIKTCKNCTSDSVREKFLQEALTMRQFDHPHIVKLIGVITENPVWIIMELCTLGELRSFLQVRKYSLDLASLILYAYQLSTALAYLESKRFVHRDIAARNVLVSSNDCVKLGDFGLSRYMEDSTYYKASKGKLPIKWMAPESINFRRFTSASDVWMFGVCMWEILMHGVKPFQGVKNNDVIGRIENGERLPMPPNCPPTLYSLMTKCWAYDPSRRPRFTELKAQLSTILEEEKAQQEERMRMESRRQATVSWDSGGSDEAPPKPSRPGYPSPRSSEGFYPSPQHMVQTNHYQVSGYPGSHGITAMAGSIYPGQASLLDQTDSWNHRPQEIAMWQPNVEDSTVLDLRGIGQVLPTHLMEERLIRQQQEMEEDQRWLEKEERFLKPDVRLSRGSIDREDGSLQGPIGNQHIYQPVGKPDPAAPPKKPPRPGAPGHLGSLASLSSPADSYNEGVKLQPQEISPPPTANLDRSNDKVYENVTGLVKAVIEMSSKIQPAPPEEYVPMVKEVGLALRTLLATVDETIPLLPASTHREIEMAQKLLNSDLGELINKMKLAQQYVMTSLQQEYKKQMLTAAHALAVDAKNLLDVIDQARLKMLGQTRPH

SMILES | pIC50 (FAK [1]) | pIC50 (FAK [2]; + 50% mouse plasma (Table 2)) | pIC50 (FAK [2]; + 50% mouse plasma (Table 3))
CCOP(=O)(Cc1ccc(Nc2ncc(C(F)(F)F)c(Nc3ccc([C@H]4CC[C@@H](O)CC4)c4c3C(=O)N(C)C4)n2)c(OC)c1)OCC [Example 94, Diethyl (4-{[4-{[7-(cis-4-hydroxycyclohexyl)-2-methyl-3-oxo-2,3-dihydro-1H-isoindol-4-yl]amino}-5-(trifluoromethyl)pyrimidin-2-yl]amino}-3-methoxybenzyl)phosphonate] | > 6.00 | > 6.00 | –
CCOP(=O)(Cc1ccc(Nc2ncc(C(F)(F)F)c(Nc3ccc([C@H]4CC[C@H](N5CCN(C)CC5)CC4)c4c3C(=O)N(C)C4)n2)c(OC)c1)OCC [Example 96, Diethyl (3-methoxy-4-{[4-({2-methyl-7-[trans-4-(4-methylpiperazin-1-yl)cyclohexyl]-3-oxo-2,3-dihydro-1H-isoindol-4-yl}amino)-5-(trifluoromethyl)pyrimidin-2-yl]amino}benzyl)phosphonate] | > 6.00 | > 6.00 | –
CCOP(=O)(Cc1ccc(Nc2ncc(C(F)(F)F)c(Nc3ccc(-c4cnn(C5CC(O)C5)c4)c4c3C(=O)N(C)C4)n2)c(OC)c1)OCC (stereo not shown) [Example 100, Diethyl (4-{[4-({7-[1-(3-hydroxycyclobutyl)-1H-pyrazol-4-yl]-2-methyl-3-oxo-2,3-dihydro-1H-isoindol-4-yl}amino)-5-(trifluoromethyl)pyrimidin-2-yl]amino}-3-methoxybenzyl)phosphonate] | > 6.00 | – | > 6.00
CCOP(=O)(Cc1ccc(Nc2ncc(C(F)(F)F)c(Nc3ccc(-c4cnn(C[C@H](O)CO)c4)c4c3C(=O)N(C)C4)n2)cc1)OCC [Example 101, Diethyl [4-({4-[(7-{1-[(2S)-2,3-dihydroxypropyl]-1H-pyrazol-4-yl}-2-methyl-3-oxo-2,3-dihydro-1H-isoindol-4-yl)amino]-5-(trifluoromethyl)pyrimidin-2-yl}amino)benzyl]phosphonate] | > 6.00 | – | > 6.00
CCOP(=O)(Cc1ccc(Nc2ncc(C(F)(F)F)c(Nc3ccc(F)cc3C(=O)NC)n2)c(OC)c1)OCC [Example 102, Diethyl (4-{[4-{[4-fluoro-2-(methylcarbamoyl)phenyl]amino}-5-(trifluoromethyl)pyrimidin-2-yl]amino}-3-methoxybenzyl)phosphonate] | > 6.00 | – | > 6.00
CCOP(=O)(Cc1ccc(Nc2ncc(C(F)(F)F)c(Nc3cc(F)ccc3C(=O)NC)n2)c(OC)c1)OCC [Example 103, Diethyl (4-{[4-{[5-fluoro-2-(methylcarbamoyl)phenyl]amino}-5-(trifluoromethyl)pyrimidin-2-yl]amino}-3-methoxybenzyl)phosphonate] | > 6.00 | – | > 6.00
CCOP(=O)(Cc1ccc(Nc2ncc(C(F)(F)F)c(Nc3ccccc3C(=O)NC)n2)c(Cl)c1)OCC [Example 104, Diethyl (3-chloro-4-{[4-{[2-(methylcarbamoyl)phenyl]amino}-5-(trifluoromethyl)pyrimidin-2-yl]amino}benzyl)phosphonate] | > 6.00 | – | > 6.00
CCOP(=O)(Cc1ccc(Nc2ncc(C(F)(F)F)c(Nc3cccc4c3C(=O)N(C)C4=O)n2)c(OC)c1)OCC [Example 105, Diethyl [3-methoxy-4-({4-[(2-methyl-1,3-dioxo-2,3-dihydro-1H-isoindol-4-yl)amino]-5-(trifluoromethyl)pyrimidin-2-yl}amino)benzyl]phosphonate] | > 6.00 | – | 5.00 to 6.00
CCOP(=O)(Cc1ccc(Nc2ncc(C(F)(F)F)c(Nc3ccc(Br)cc3C(=O)NC)n2)c(OC)c1)OCC [Example 107, Diethyl (4-{[4-{[4-bromo-2-(methylcarbamoyl)phenyl]amino}-5-(trifluoromethyl)pyrimidin-2-yl]amino}-3-methoxybenzyl)phosphonate] | > 6.00 | – | > 6.00
CCOP(=O)(Cc1ccc(Nc2ncc(C(F)(F)F)c(Nc3ccc(CN4CCCC4)c4c3C(=O)N(C)C4)n2)cc1)OCC [Example 109, Diethyl (4-{[4-{[2-methyl-3-oxo-7-(pyrrolidin-1-ylmethyl)-2,3-dihydro-1H-isoindol-4-yl]amino}-5-(trifluoromethyl)pyrimidin-2-yl]amino}benzyl)phosphonate] | > 6.00 | – | 5.00 to 6.00
CCOP(=O)(Cc1ccc(Nc2ncc(C(F)(F)F)c(Nc3ccc(CN4CCCC4)c4c3C(=O)N(C)C4)n2)c(OC)c1)OCC [Example 110, Diethyl (3-methoxy-4-{[4-{[2-methyl-3-oxo-7-(pyrrolidin-1-ylmethyl)-2,3-dihydro-1H-isoindol-4-yl]amino}-5-(trifluoromethyl)pyrimidin-2-yl]amino}benzyl)phosphonate] | > 6.00 | – | > 6.00
CNC(=O)c1ccccc1Nc1nc(Nc2ccc(CP(=O)(OCCO)OCCO)cc2OC)ncc1C(F)(F)F [Example 113, Bis(2-hydroxyethyl)(3-methoxy-4-{[4-{[2-(methylcarbamoyl)phenyl]amino}-5-(trifluoromethyl)pyrimidin-2-yl]amino}benzyl)phosphonate] | > 6.00 | – | > 6.00
CNC(=O)c1ccccc1Nc1nc(Nc2ccc(CP(=O)(OCC(F)(F)F)OCC(F)(F)F)cc2OC)ncc1C(F)(F)F [Example 114, Bis(2,2,2-trifluoroethyl)(3-methoxy-4-{[4-{[2-(methylcarbamoyl)phenyl]amino}-5-(trifluoromethyl)pyrimidin-2-yl]amino}benzyl)phosphonate] | > 6.00 | – | > 6.00
CCOP(=O)(OCC)C(OCC(F)(F)F)c1ccc(Nc2ncc(C(F)(F)F)c(Nc3ccccc3C(=O)NC)n2)cc1 (stereo not shown) [Example 115, Diethyl [(4-{[4-{[2-(methylcarbamoyl)phenyl]amino}-5-(trifluoromethyl)pyrimidin-2-yl]amino}phenyl)(2,2,2-trifluoroethoxy)methyl]phosphonate] | > 6.00 | – | 5.00 to 6.00
CCOP(=O)(Cc1ccc(Nc2ncc(C(F)(F)F)c(Nc3ccc(C(=O)N4CCCC4)c4c3C(=O)N(C)C4)n2)cc1)OCC [Example 116, Diethyl (4-{[4-{[2-methyl-3-oxo-7-(pyrrolidin-1-ylcarbonyl)-2,3-dihydro-1H-isoindol-4-yl]amino}-5-(trifluoromethyl)pyrimidin-2-yl]amino}benzyl)phosphonate] | > 6.00 | – | 5.00 to 6.00
CCOP(=O)(Cc1ccc(Nc2ncc(C(F)(F)F)c(Nc3ccc(C(=O)N4CCCC4)c4c3C(=O)N(C)C4)n2)c(OC)c1)OCC [Example 117, Diethyl (3-methoxy-4-{[4-{[2-methyl-3-oxo-7-(pyrrolidin-1-ylcarbonyl)-2,3-dihydro-1H-isoindol-4-yl]amino}-5-(trifluoromethyl)pyrimidin-2-yl]amino}benzyl)phosphonate] | > 6.00 | – | > 6.00
CCOP(=O)(Cc1ccc(Nc2ncc(C(F)(F)F)c(Nc3ccc(C(=O)OC)c4c3C(=O)N(C)C4)n2)c(OC)c1)OCC [Example 119, Methyl 7-{[2-({4-[(diethoxyphosphoryl)methyl]-2-methoxyphenyl}amino)-5-(trifluoromethyl)pyrimidin-4-yl]amino}-2-methyl-1-oxo-2,3-dihydro-1H-isoindole-4-carboxylate] | > 6.00 | – | > 6.00
